For orientation: pKa means the pH at which an ionisable group is half protonated.

Data on 25 compounds can be found in US20230038201A1, “TRANSFER FILM, PHOTOSENSITIVE MATERIAL, PATTERN FORMING METHOD, MANUFACTURING METHOD OF CIRCUIT BOARD, AND MANUFACTURING METHOD OF TOUCH PANEL” (FUJIFILM Corporation, priority 2020, published 2023).

Read-outs that look alike come from different tables or passages of the source. Where only a bound is given, the exact number is not on record here.

Data set [1] in a line: Measurement of ε365 and ε365/ε313 of compound β (molar absorption coefficients in acetonitrile). The data set is classed as physicochemical. Further details: key to ε365 of Compound β: molar absorption coefficient at 365 nm in (cm·mol/L)^−1. The following applies: for ε365/ε313: compound β. The text has this:
(Measurement and Evaluation of ε365 and ε365/ε313)
A molar absorption coefficient ((cm·mol/L)^−1, “ε365”) of the compound β at 365 nm and a molar absorption coefficient ((cm·mol/L)^−1, “ε313”) of the compound β at 313 nm were obtained, and a value (ε365/ε313) obtained by divided ε365 by ε313 was obtained.
The ε365 and ε313 of the compound β are molar absorption coefficients measured by dissolving the compound β in acetonitrile. In a case where the compound β was insoluble in acetonitrile, a solvent for dissolving the compound β may be appropriately changed.

Data set [2] can be described thus: Measurement of pKa of compound β in ground state (acid titration, 0.1 N HCl, methanol/water). The note with it: for pKa: methanol/water mixture.
The mark [3] stands for this setting: molar absorption coefficient at 365 nm.
Where [4] appears, read: molar absorption coefficient at 365 nm in acetonitrile.
The mark [5] stands for this setting: molar absorption coefficient at 365 nm, compound β alone.
[6] abbreviates: molar absorption coefficient at 365 nm, in acetonitrile.
[7] abbreviates: pKa of Compound β in ground state.
[8] abbreviates: pKa of Compound β in ground state, compound β alone.
[9] abbreviates: pKa of Compound β in ground state, compound β, ground state.
The mark [10] stands for this setting: pKa of Compound β in ground state, ground state.
[11] abbreviates: pKa in ground state, compound β, pKa of the conjugate acid for nitrogen-containing aromatic compounds.
Where [12] appears, read: compound β, pKa of the conjugate acid for nitrogen-containing aromatic compounds.

For `Cc1cc(C)c2c(C)cc(C)nc2c1` [2,4,5,7-Tetramethylquinoline], the “ε365 of Compound β” value was less than 10 in data set [1]; less than 10 in data set [1] (compound β alone); less than 10 in data set [1] (setting [3]); <10 (cm·mol/L)^−1 in data set [1] (setting [4]); less than 10 in data set [1] (setting [5]); <10 (cm·mol/L)^−1 in data set [1] (setting [6]). Also, the pKa in data set [2] (setting [7]), in data set [2] (setting [8]), in data set [2] (setting [9]) and in data set [2] (setting [10]) was 6.23 throughout.

The compound `CC(=O)c1ccncc1` [4-Acetylpyridine] returned a ε365/ε313 in data set [1] (in acetonitrile) of less than 1. The pKa in data set [2] (setting [11]) was found to be 3.1.

The compound `O=C(c1ccccc1)c1ccncc1` [4-Benzoylpyridine] displayed a ε365/ε313 in data set [1] (in acetonitrile) of less than 1. Further, the pKa in data set [2] (setting [11]) was 2.9.

On to `c1cnc2c(c1)CCCC2` [5,6,7,8-Tetrahydroquinoline], for which the ε365/ε313 in data set [1] (in acetonitrile) was less than 1. The pKa in data set [2] (setting [11]) was 5.9.

As to `CCCCc1ncc(C)c2ccccc12` [Example 1-n-Butyl-4-methylisoquinoline, 1-n-Butyl-4-methylisoquinoline], the “ε365 of Compound β” value is less than 10 in data set [1]; less than 10 in data set [1] (compound β alone); less than 10 in data set [1] (setting [3]); <10 (cm·mol/L)^−1 in data set [1] (setting [4]); less than 10 in data set [1] (setting [5]); <10 (cm·mol/L)^−1 in data set [1] (setting [6]). The pKa in data set [2] (setting [7]), in data set [2] (setting [8]), in data set [2] (setting [9]) and in data set [2] (setting [10]) was 5.9 in each case.

Consider `CCCCc1nccc2ccccc12` [Example 1-n-Butylisoquinoline, 1-n-Butylisoquinoline], for which the “ε365 of Compound β” value is recorded as less than 10 in data set [1]; less than 10 in data set [1] (compound β alone); less than 10 in data set [1] (setting [3]); <10 (cm·mol/L)^−1 in data set [1] (setting [4]); less than 10 in data set [1] (setting [5]); <10 (cm·mol/L)^−1 in data set [1] (setting [6]). The pKa in data set [2] (setting [7]), in data set [2] (setting [8]), in data set [2] (setting [9]) and in data set [2] (setting [10]) was 5.27 in each case.

For `Clc1ccccn1` [Example 2-Chloropyridine, 2-Chloropyridine], the “ε365 of Compound β” value is less than 10 in data set [1]; less than 10 in data set [1] (compound β alone); less than 10 in data set [1] (setting [3]); <10 (cm·mol/L)^−1 in data set [1] (setting [4]); less than 10 in data set [1] (setting [5]); <10 (cm·mol/L)^−1 in data set [1] (setting [6]). In addition, the “pKa of Compound β in ground state” value in data set [2] turned out to be 0.70; in data set [2] (compound β alone) it was 0.70; in data set [2] (compound β, ground state) it was 0.70; in data set [2] (ground state) it was 0.70.

Turning to `COc1cc(C)nc2ccccc12` [Example 2-Methyl-4-methoxyquinoline, 2-Methyl-4-methoxyquinoline], the “ε365 of Compound β” value in data set [1] is listed as less than 10; in data set [1] (compound β alone) it was less than 10; in data set [1] (setting [3]), less than 10; in data set [1] (setting [4]) it was <10 (cm·mol/L)^−1; in data set [1] (setting [5]) it was less than 10; in data set [1] (setting [6]), <10 (cm·mol/L)^−1. The pKa in data set [2] (setting [7]), in data set [2] (setting [8]), in data set [2] (setting [9]) and in data set [2] (setting [10]) was 6.51 throughout.

For `Nc1ccncc1` [Example 4-Aminopyridine, 4-Aminopyridine], the “ε365 of Compound β” value was less than 100 in data set [1]; less than 100 in data set [1] (compound β alone); less than 100 in data set [1] (setting [3]); <100 (cm·mol/L)^−1 in data set [1] (setting [4]); less than 100 in data set [1] (setting [5]); <100 (cm·mol/L)^−1 in data set [1] (setting [6]). In addition, the pKa in data set [2] (setting [7]), in data set [2] (setting [8]), in data set [2] (setting [9]) and in data set [2] (setting [10]) was 9.2 in each case.

In the case of `Cc1c2ccccc2nc2ccccc12` [Example 9-Methylacridine, 9-Methylacridine], the “ε365 of Compound β” value in data set [1] is on record as 6300; in data set [1] (compound β alone), 6300; in data set [1] (setting [3]), 6300; in data set [1] (setting [4]), 6300 (cm·mol/L)^−1; in data set [1] (setting [5]), 6300; in data set [1] (setting [6]), 6300 (cm·mol/L)^−1. For the same compound, the pKa in data set [2] (setting [7]), in data set [2] (setting [8]), in data set [2] (setting [9]) and in data set [2] (setting [10]) was 5.4 in each case.

With `c1ccc(-c2c3ccccc3nc3ccccc23)cc1` [Example 9-Phenylacridine, 9-Phenylacridine], in data set [1] (setting [5]), the “ε365 of Compound β” value is greater than 1000. Besides, the pKa in data set [2] (setting [7]), in data set [2] (setting [8]), in data set [2] (setting [9]) and in data set [2] (setting [10]) was 4.04 throughout.

Take `c1ccc2cnccc2c1` [Example B1, isoquinoline]: the “ε365 of Compound β” value in data set [1] was less than 10; in data set [1] (compound β alone), less than 10; in data set [1] (setting [3]), less than 10; in data set [1] (setting [4]), <10 (cm·mol/L)^−1; in data set [1] (setting [5]) it was less than 10; in data set [1] (setting [6]), <10 (cm·mol/L)^−1. Further, the ε365/ε313 in data set [1] (in acetonitrile) was less than 1. In data set [2] (setting [12]), the “pKa in ground state” value came to 4.69. Further, the pKa in data set [2] (setting [11]) stood at 4.7; in data set [2] (setting [7]), 4.69; in data set [2] (setting [8]), 4.69; in data set [2] (setting [9]), 4.69; in data set [2] (setting [10]) it was 4.69.

Turning to `c1ccc2ncccc2c1` [Example B2, quinoline], the “ε365 of Compound β” value in data set [1] is given as less than 10; in data set [1] (compound β alone), less than 10; in data set [1] (setting [3]), less than 10; in data set [1] (setting [4]), <10 (cm·mol/L)^−1; in data set [1] (setting [5]) it was less than 10; in data set [1] (setting [6]), <10 (cm·mol/L)^−1. Besides, the ε365/ε313 in data set [1] (in acetonitrile) was less than 1. Besides, the “pKa in ground state” value in data set [2] (setting [12]) is listed as 4.15. In addition, the pKa in data set [2] (setting [11]) amounted to 4.2; in data set [2] (setting [7]), 4.15; in data set [2] (setting [8]), 4.15; in data set [2] (setting [9]), 4.15; in data set [2] (setting [10]) it was 4.15.

Take `c1ccc2nc3ccccc3cc2c1` [Example B3, acridine]: the “ε365 of Compound β” value is 4900 in data set [1]; 4900 in data set [1] (compound β alone); 4900 in data set [1] (setting [3]); 4900 (cm·mol/L)^−1 in data set [1] (setting [4]); 4900 in data set [1] (setting [5]); 4900 (cm·mol/L)^−1 in data set [1] (setting [6]). For the same compound, in data set [1] (in acetonitrile), the ε365/ε313 was greater than 3. The “pKa in ground state” value in data set [2] (setting [12]) turned out to be 4.67. In addition, the pKa in data set [2] (setting [11]) came to 4.7; in data set [2] (setting [7]), 4.67; in data set [2] (setting [8]) it was 4.67; in data set [2] (setting [9]) it was 4.67; in data set [2] (setting [10]), 4.67.

As to `CCCCc1nccc2ccccc12` [Example B4, 1-n-butylisoquinoline], in data set [2] (setting [11]), the pKa was found to be 5.27.

As for `CCCCc1ncc(C)c2ccccc12` [Example B5, 1-n-butyl-4-methylisoquinoline], the pKa in data set [2] (setting [11]) is 5.9.

As for `Cc1nccc2ccccc12` [Example B6, 1-Me-isoquinoline], the “ε365 of Compound β” value in data set [1] is less than 10; in data set [1] (compound β alone), less than 10; in data set [1] (setting [3]), less than 10; in data set [1] (setting [4]), <10 (cm·mol/L)^−1; in data set [1] (setting [5]), less than 10; in data set [1] (setting [6]) it was <10 (cm·mol/L)^−1. Further, the “pKa of Compound β in ground state” value in data set [2] turned out to be 5.31; in data set [2] (compound β alone) it was 5.31; in data set [2] (compound β, ground state) it was 5.31; in data set [2] (ground state), 5.31. In data set [2] (setting [12]), the “pKa in ground state” value stood at 5.31.

Consider `Cc1cc(C)c2c(C)cc(C)nc2c1` [Example B7, 2,4,5,7-tetramethylquinoline], for which the pKa in data set [2] (setting [11]) turned out to be 6.23.

On to `COc1cc(C)nc2ccccc12` [Example B8, 2-methyl-4-methoxyquinoline], for which the pKa in data set [2] (setting [11]) stood at 6.51.

Turning to `Cc1c2ccccc2nc2ccccc12` [Example B9, 9-methylacridine], the pKa in data set [2] (setting [11]) is 5.4.

On to `c1ccc(-c2c3ccccc3nc3ccccc23)cc1` [Example B10, 9-phenylacridine], for which the pKa in data set [2] (setting [11]) is 4.04.

On to `c1ccncc1` [Example B11, pyridine], for which the “ε365 of Compound β” value in data set [1] is less than 10; in data set [1] (compound β alone), less than 10; in data set [1] (setting [3]) it was less than 10; in data set [1] (setting [4]) it was <10 (cm·mol/L)^−1; in data set [1] (setting [5]), less than 10; in data set [1] (setting [6]), <10 (cm·mol/L)^−1.

Regarding `Cc1cc(C)c2ccccc2n1` [Example B12, 2,4-dimethylquinoline], the “ε365 of Compound β” value was less than 10 in data set [1]; less than 10 in data set [1] (setting [3]); <10 (cm·mol/L)^−1 in data set [1] (setting [4]); less than 10 in data set [1] (setting [5]); <10 (cm·mol/L)^−1 in data set [1] (setting [6]). Besides, the pKa in data set [2] (setting [11]), in data set [2] (setting [7]), in data set [2] (setting [8]), in data set [2] (setting [9]) and in data set [2] (setting [10]) was 5.67 in each case.

As for `Clc1ccccn1` [Example B14, 2-chloropyridine], the pKa in data set [2] was found to be 0.7.

Turning to `c1ccc2c(c1)cnc1ccccc12` [Phenanthridine], the ε365/ε313 in data set [1] (in acetonitrile) is listed as less than 1. In addition, in data set [2] (setting [11]), the pKa is 3.8.
